The source of these data is patent publication US20170007561A1, “CONTEMPORANEOUS, HETEROGENEOUSLY-ORIENTED, MULTI-TARGETED THERAPEUTIC MODIFICATION AND/OR MODULATION OF DISEASE BY ADMINISTRATION OF SULFUR-CONTAINING, AMINO ACID-SPECIFIC SMALL MOLECULES” (BioNumerik Pharmaceuticals, Inc., priority 2014, published 2017).

Entries after “also recorded” stand apart in the source; their conditions may differ. Some results are limits rather than exact numbers.

The target in one assay is Aminopeptidase N (Homo sapiens, UniProt P15144). Nature of the assay: Aminopeptidase N activity (summary Table 27). Format: biochemical.
Sequence of Aminopeptidase N (P15144 whole entry): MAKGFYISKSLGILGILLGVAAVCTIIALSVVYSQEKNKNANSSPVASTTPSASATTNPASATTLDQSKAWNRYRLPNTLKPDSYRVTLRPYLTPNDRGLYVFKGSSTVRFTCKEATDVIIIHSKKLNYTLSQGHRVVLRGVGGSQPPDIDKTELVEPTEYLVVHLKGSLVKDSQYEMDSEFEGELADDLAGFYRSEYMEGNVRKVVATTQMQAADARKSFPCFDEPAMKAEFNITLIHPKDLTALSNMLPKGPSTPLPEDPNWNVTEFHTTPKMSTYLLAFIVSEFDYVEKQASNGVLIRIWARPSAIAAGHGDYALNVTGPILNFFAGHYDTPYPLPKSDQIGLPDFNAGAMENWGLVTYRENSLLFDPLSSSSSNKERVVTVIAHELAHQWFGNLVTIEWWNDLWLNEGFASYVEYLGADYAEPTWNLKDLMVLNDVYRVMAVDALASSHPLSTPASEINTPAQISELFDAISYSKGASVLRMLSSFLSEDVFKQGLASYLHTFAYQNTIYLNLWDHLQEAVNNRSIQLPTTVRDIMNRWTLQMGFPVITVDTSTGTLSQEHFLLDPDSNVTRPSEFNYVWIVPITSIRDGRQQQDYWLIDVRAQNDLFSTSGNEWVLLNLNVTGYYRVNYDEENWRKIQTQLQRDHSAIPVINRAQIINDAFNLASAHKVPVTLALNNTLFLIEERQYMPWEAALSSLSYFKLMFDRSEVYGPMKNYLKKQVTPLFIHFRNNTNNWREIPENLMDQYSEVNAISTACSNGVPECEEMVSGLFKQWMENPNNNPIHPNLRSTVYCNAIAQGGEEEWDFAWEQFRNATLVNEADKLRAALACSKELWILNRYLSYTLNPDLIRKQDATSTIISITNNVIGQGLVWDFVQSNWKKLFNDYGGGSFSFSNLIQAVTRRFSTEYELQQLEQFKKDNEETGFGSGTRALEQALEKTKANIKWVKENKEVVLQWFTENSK
Assay [1] relates to bovine brain microtubule protein (α-/β-tubulin). Nature of the assay: Electron microscopy of microtubule polymerization reactions. It is filed as biochemical. The conditions noted are these: presence and absence of paclitaxel. The protocol:
(1 mM/1 mM/6 μM (v/v/v)). Electron micrograph samples were prepared by gently mixing samples of reactions with an equal volume of 50% sucrose in buffer P (0.1 M PIPES, 1 mM EGTA, pH 6.5) and mounting on carbon-coated grids (400 mesh formvar/carbon, Electron Microscopy Sciences). Grids were washed with cytochrome c (1%) and water and stained with uranyl acetate (1%). Electron microscopy was performed using a Philips 208S electron microscope (Philips Instruments) at an accelerating voltage of 60 kV. Micrographs were taken at 36,000× and 7,000× magnifications.

A further assay has as its target RNR subunit 1 (Homo sapiens, UniProt P23921). Nature of the assay: Whole protein Mass Spectroscopy of RNR1. Format: binding. An excerpt:
RNR1 contains a total of sixteen (16) cysteine residues and at least five (5) of these cysteine residues are required for catalysis, including: Cys218, Cys429, Cys444, Cys787, and Cys790. It is hypothesized that the Tavocept-derived mesna adducts identified on the RNR1 protein using whole protein Mass Spectroscopy (see, FIG. 49) may alter or modulate RNR activity.

For assay [2], the target named is T1, Recombinant human peroxiredoxin 1 (Homo sapiens, UniProt Q06830).
T1 construct: purchased SigmaAldrich
T1 sequence (Q06830 1-199): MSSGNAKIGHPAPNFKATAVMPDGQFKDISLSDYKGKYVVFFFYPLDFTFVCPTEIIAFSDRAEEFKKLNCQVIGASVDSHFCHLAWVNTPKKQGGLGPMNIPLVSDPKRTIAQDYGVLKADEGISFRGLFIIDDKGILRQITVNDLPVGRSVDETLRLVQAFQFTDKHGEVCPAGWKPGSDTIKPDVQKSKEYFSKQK
Nature of the assay: LC-MS of trypsin or chymotrypsin digested Prx 1 after incubation with Tavocept. It is filed as binding. As to the method:
Recombinant human peroxiredoxin 1 (purchased from SigmaAldrich; 333 μg; 0.015 micromoles) was reduced using an excess of dithiothreitol (DTT; 35 micromoles) in NH4HCO3 buffer (40 mM, pH 8.0) at 37° C. for 50 minutes (total reaction volume was 750 μL; final Prx concentration was 20 μM; and final DTT concentration was 46 mM). […] (total reaction volume was 500 μL). After 16-18 hours incubation, each reaction was removed and chromatographed using G25 Sephadex columns.
In brief, the G25 chromatographed Prx1 incubation reactions were digested with Trypsin Gold. Trypsin Gold was dissolved in 400 μL of NH4HCO3 and 100 μL of acetonitrile. A 100-150 μL volume of this Trypsin Gold stock was then added to 500 μl of the aforementioned final sample with 75 μL of acetonitrile and then the reaction volume was adjusted to a total of 750 μL with NH4HCO3. The sample was incubated for 6 hours at 37° C. Chymotrypsin digests were by dissolving chymotrypsin in 1M HCL. A 50 μL volume of this chymotrypsin stock solution was added to added to 500 μl of the aforementioned final sample along with 10% (v/v) of CaCl2 (100 mM stock). NH4HCO3 buffer was then added to bring the total reaction volume to 750 μL. Chymotrypsin digests were incubated for 16 hours at 30° C. Following digest by either trypsin or chymotrypsin, reactions were lyophilized to dryness overnight and then resuspended in a minimal amount of HPLC grade water prior to LC MS analyses.
A Symmetry C18 HPLC column (Waters, Franklin, Mass.; 3.5 μm; 4.6×75 mm) and a Waters Alliance liquid chromatography system (Waters 2695; Franklin, Mass.) coupled to a Micromass single quadropole mass detector (Micromass ZMD; Manchester, UK) were used to analyze fragments from trypsin or chymotrypsin digested human Prx1. The mobile phase contained 0.1% of formic acid throughout the run and the flow rate was 0.35 ml/min. […]

Assay [3] concerns the target human peroxiredoxin 4 (PRX4) (Homo sapiens, UniProt Q13162). Nature of the assay: X-ray crystallography and Mass Spectrometry of Prx 4 with Tavocept-derived mesna. The conditions noted are these: 40 mM Tavocept; MS and X-ray.
For a further assay, the target named is recombinant human Prx 1 (Homo sapiens, UniProt Q06830). The assay is described as follows: Prx assay coupled to Trx, TrxR and NADPH. It is filed as biochemical. The conditions noted are these: initial velocity. The protocol:
Prx activity in the buffer control (Apo-Prx) and the Tavocept-treated sample (Prx-mesna) was determined using the Prx assay outlined in FIG. 58. A typical assay mixture was 150 μL in final volume and contained HEPES Buffer (45 mM, pH 7.0, 1 mM EDTA), 350 μM NADPH, 0.12 μM rat liver TrxR, 80 μM insulin, 2.9 μM human Trx 1, and Prx (4.8 or 2.4 μM per assay). Assays were initiated by the addition of H2O2 (100 μM) and were monitored at 340 nm at 25° C. for 30 minutes using a using a Molecular Devices SpectraMax Plus UV/vis plate reader. Activity was calculated using a 4 minute linear portion of each assay and then this rate was converted into percent of control with the buffer treated Prx 1 reaction (Apo-Prx) serving as a 100% control. See, FIG. 59. […] This reduction in rate is approximately 43% in assays containing 2.4 μM Prx and 23% in assays containing 4.8 μM Prx. See, FIG. 59. […] Therefore, as the concentration of unmodified Prx increases, the turnover more nearly approaches the buffer control Apo-Prx samples.

The target of assay [4] is T2, human Trx with rat liver TrxR (Homo sapiens, UniProt P10599).
T2 sequence (P10599 1-105): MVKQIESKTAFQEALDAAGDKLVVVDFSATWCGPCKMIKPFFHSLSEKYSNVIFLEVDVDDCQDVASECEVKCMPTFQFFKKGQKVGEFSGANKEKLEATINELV
Nature of the assay: TrxR/Trx insulin disulfide reduction assay (NADPH oxidation 340 nm, insulin B chain precipitation 650 nm). It is filed as biochemical. The conditions noted are these: Tavocept 0-10 mM, insulin 86 μM.

Sequence of human peroxiredoxin 4 (PRX4) (Q13162 79-271 limits assumed): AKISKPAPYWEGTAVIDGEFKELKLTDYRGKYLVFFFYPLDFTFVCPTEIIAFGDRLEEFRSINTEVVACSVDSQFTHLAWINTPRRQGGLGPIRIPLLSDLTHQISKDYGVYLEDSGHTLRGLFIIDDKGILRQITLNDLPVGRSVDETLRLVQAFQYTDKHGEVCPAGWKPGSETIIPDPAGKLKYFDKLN
Sequence of RNR subunit 1 (P23921 whole entry): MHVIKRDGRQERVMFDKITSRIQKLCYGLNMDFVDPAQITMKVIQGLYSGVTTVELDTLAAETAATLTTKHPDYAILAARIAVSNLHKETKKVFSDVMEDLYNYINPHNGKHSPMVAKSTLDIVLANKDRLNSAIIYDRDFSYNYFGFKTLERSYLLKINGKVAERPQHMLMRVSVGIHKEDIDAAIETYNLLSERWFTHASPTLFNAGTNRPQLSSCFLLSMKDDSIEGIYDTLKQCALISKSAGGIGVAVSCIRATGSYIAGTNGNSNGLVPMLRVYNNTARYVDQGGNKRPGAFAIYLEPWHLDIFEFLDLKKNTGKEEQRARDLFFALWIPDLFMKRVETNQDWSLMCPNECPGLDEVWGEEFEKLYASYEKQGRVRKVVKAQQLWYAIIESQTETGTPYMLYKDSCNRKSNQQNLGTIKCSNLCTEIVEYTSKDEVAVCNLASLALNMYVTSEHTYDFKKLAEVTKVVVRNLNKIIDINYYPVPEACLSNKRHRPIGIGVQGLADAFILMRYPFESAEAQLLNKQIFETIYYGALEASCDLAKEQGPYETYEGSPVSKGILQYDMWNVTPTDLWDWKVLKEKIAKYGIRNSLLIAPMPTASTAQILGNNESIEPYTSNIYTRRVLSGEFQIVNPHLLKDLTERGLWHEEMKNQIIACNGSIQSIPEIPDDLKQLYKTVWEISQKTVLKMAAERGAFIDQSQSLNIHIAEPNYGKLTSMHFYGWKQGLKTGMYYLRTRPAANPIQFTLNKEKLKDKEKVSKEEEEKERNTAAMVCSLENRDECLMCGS

For `O=S(=O)([O-])CCSSCCS(=O)(=O)[O-].[Na+].[Na+]` [Tavocept, disodium 2,2′-dithio-bis-ethane sulfonate], the “Cellular consequence of BNP7787-modification and/or modulation: aminopeptidase N” value at Aminopeptidase N was “can inhibit γ-glutamyltranspeptidase and aminopeptidase N enzyme”. The “abundance of microtubules on EM grids” value in assay [1] (Tavocept preincubated 20 minutes, qualitative) is on record as “reduction in the abundance of microtubules”. Also, in assay [1] (Tavocept), the microtubule morphology entry is reported as “no effects on overall gross microtubule morphology”. Moreover, the “number of Tavocept-derived mesna adducts on cysteine residues within RNR1” value at RNR subunit 1 is on record as not above 8. For the same compound, the “Tavocept-derived mesna Adduct detected?” value in assay [2] (chymotryptic fragment VCPTEIIAF (Cys 52)), in assay [2] (chymotryptic fragment […] (Cys 173)) and in assay [2] (tryptic fragment […] (Cys 173)) was “Yes” each time. Also, the “Prx 4 cysteine residues carrying Tavocept-derived mesna moiety” value in assay [3] is recorded as “Cys124; also recorded: cysteine 124 (and possibly cysteine 245)”. Besides, the “activity of Tavocept-modified Prx versus Apo-Prx” value on recombinant human Prx 1 is “less active”. The “Effect on TrxR/Trx mediated rate of NADPH oxidation during insulin reduction” value in assay [4] is on record as “an effect on the TrxR/Trx mediated rate of NADPH oxidation”.
